In patent publication US20260355196A1, “INHIBITORS AND DEGRADERS OF PIP4K PROTEIN” (Larkspur Biosciences, Inc., priority 2023, published 2026):

Each molecule was assayed against T1, PIP4K2C (Homo sapiens, UniProt Q8TBX8) (assay: Enzyme Binding Assay (KINOMEscan): active site-directed competition binding to an immobilized ligand). Conditions: 11-point dose response, duplicate, top concentration 5 micromolar; read-out: Pip4k2c Kd: IC50.
T1 sequence (Q8TBX8 1-421): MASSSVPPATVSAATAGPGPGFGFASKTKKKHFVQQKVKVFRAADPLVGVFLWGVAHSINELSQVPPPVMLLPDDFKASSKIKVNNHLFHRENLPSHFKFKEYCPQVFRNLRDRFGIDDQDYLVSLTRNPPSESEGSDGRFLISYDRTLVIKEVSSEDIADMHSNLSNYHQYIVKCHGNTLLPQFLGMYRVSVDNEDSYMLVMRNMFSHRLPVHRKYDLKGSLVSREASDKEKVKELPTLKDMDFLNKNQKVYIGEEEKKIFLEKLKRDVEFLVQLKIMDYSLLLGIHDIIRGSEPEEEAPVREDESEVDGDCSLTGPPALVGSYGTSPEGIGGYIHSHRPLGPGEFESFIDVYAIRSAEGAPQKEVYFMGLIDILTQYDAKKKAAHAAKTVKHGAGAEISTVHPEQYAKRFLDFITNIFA
Design: purchased Eurofins DiscoverX, San Diego, CA 87-0007-1094
Outline: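 IC50 values come from Hill-equation fits (Levenberg-Marquardt) to 11-point duplicate titrations starting at 5 micromolar. Read-out is competition of compound with an immobilized ligand for the kinase active site.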

Row | IC50 [nM] | SMILES
1 | < 500 | CC(=O)N[C@H]1CC[C@H](Nc2ncc(Cl)c(C3CCCN(C(=O)c4ccc(F)cc4)C3)n2)CC1 (stereo partly drawn) [Compound 124, trans-N-(4-((5-chloro-4-(1-(4-fluorobenzoyl)piperidin-3-yl)pyrimidin-2-yl)amino)cyclohexyl)acetamide]
2 | < 500 | NC(=O)[C@H]1CC[C@H](Nc2ncc(F)c(-c3ccnc(N4CCOC4=O)c3)n2)CC1 [Compound 263, trans-(1r,4r)-4-((5-fluoro-4-(2-(2-oxooxazolidin-3-yl)pyridin-4-yl)pyrimidin-2-yl)amino)cyclohexane-1-carboxamide]
3 | < 500 | NC(=O)[C@H]1CC[C@H](Nc2ncc(F)c(-c3ccnc(C4(O)CCC4)c3)n2)CC1 [Compound 243, trans-4-((5-fluoro-4-(2-(1-hydroxycyclobutyl)pyridin-4-yl)pyrimidin-2-yl)amino)cyclohexane-1-carboxamide]
4 | < 500 | NC(=O)[C@H]1CCC[C@@H](Nc2ncc(F)c(-c3cccc(C4COC4)c3)n2)C1 (relative stereo) [Compound 170, cis-3-((5-fluoro-4-(3-(oxetan-3-yl)phenyl)pyrimidin-2-yl)amino)cyclohexane-1-carboxamide]
5 | < 500 | CC(=O)N[C@H]1CC[C@H](Nc2ncc(F)c(-c3cccc(N4CCCC4=O)c3)n2)CC1 [Compound 248, trans-N-(4-((5-fluoro-4-(3-(2-oxopyrrolidin-1-yl)phenyl)pyrimidin-2-yl)amino)cyclohexyl)acetamide]
6 | < 500 | NC(=O)[C@H]1CC[C@H](Nc2ncc(F)c(-c3cccc(N4CCCC4=O)c3)n2)CC1 [Compound 249, trans-4-((5-fluoro-4-(3-(2-oxopyrrolidin-1-yl)phenyl)pyrimidin-2-yl)amino)cyclohexane-1-carboxamide]
7 | < 500 | CN1CCC(C(=O)N2CCC(Nc3ncc(Cl)c(-c4cccc(-c5ccccc5)c4)n3)CC2)CC1 [Compound 3, (4-((4-([1,1′-biphenyl]-3-yl)-5-chloropyrimidin-2-yl)amino)piperidin-1-yl)(1-methylpiperidin-4-yl)methanone]
8 | < 500 | NC(=O)[C@H]1CC[C@H](Nc2ncc(F)c(-c3cccc(-c4ccc(=O)[nH]c4)c3)n2)CC1 [Compound 229, trans-4-((5-fluoro-4-(3-(6-oxo-1,6-dihydropyridin-3-yl)phenyl)pyrimidin-2-yl)amino)cyclohexane-1-carboxamide]
9 | < 500 | CNC(=O)[C@H]1C[C@@H](Nc2ncc(Cl)c(-c3cccc(-n4ccccc4=O)c3)n2)C1 [Compound 94, cis-3-((5-chloro-4-(3-(2-oxopyridin-1 (2H)-yl)phenyl)pyrimidin-2-yl)amino)-N-methylcyclobutane-1-carboxamide]
10 | < 500 | CC(=O)N[C@H]1CC[C@@H](Nc2ncc(Cl)c(-c3cccc(-c4ccc[nH]c4=O)c3)n2)CC1 [Compound 153, cis-N-((1s,4s)-4-((5-chloro-4-(3-(2-oxo-1,2-dihydropyridin-3-yl)phenyl)pyrimidin-2-yl)amino)cyclohexyl)acetamide]
11 | < 500 | Cc1ccc(=O)n(-c2cccc(-c3nc(N[C@H]4CCC[C@@H](C(N)=O)C4)ncc3F)c2)c1 [Compound 207, (1R,3S)-3-((5-fluoro-4-(3-(5-methyl-2-oxopyridin-1 (2H)-yl)phenyl)pyrimidin-2-yl)amino)cyclohexane-1-carboxamide]
12 | 1000 to 5000 | NC(=O)[C@H]1CCC[C@@H](Nc2ncc(F)c(-c3ccn(-c4ccc(F)cc4)n3)n2)C1 (relative stereo) [Compound 42, cis-3-((5-fluoro-4-(1-(4-fluorophenyl)-1H-pyrazol-3-yl)pyrimidin-2-yl)amino)cyclohexane-1-carboxamide]
13 | < 500 | CNC(=O)[C@H]1CC[C@H](Nc2ncc(Cl)c(-c3cccc(-c4ccc[nH]c4=O)c3)n2)CC1 [Compound 155, trans-(1r,4r)-4-((5-chloro-4-(3-(2-oxo-1,2-dihydropyridin-3-yl)phenyl)pyrimidin-2-yl)amino)-N-methylcyclohexane-1-carboxamide]
14 | < 500 | CC(=O)N[C@H]1CC[C@H](Nc2ncc(Cl)c(-c3cnn(-c4cc[nH]c(=O)c4)c3)n2)CC1 [Compound 147, trans-N-((1r,4r)-4-((5-chloro-4-(1-(2-oxo-1,2-dihydropyridin-4-yl)-1H-pyrazol-4-yl)pyrimidin-2-yl)amino)cyclohexyl)acetamide]
15 | < 500 | CC(=O)N[C@H]1CC[C@H](Nc2ncc(F)c(-c3cccc(-c4ccccc4)c3)n2)CC1 [Compound 609, trans-N-(4-((4-([1,1′-biphenyl]-3-yl)-5-fluoropyrimidin-2-yl)amino)cyclohexyl)acetamide]
16 | 500 to 1000 | CC(=O)N1CCC(Nc2ncc(F)c(N3CCOCC3)n2)CC1 [Compound 205, 1-(4-((5-fluoro-4-morpholinopyrimidin-2-yl)amino)piperidin-1-yl)ethan-1-one]
17 | < 500 | CC(=O)N1CCC[C@H](Nc2ncc(Cl)c(-c3cccc(N4CCCCC4)c3)n2)C1 [Compound 37, (S)-1-(3-((5-chloro-4-(3-(piperidin-1-yl)phenyl)pyrimidin-2-yl)amino)piperidin-1-yl)ethan-1-one]
18 | < 500 | CC(=O)N[C@H]1CC[C@H](Nc2ncc(Cl)c(-c3cnn(-c4ccc[nH]c4=O)c3)n2)CC1 [Compound 149, trans-N-((1r,4r)-4-((5-chloro-4-(1-(2-oxo-1,2-dihydropyridin-3-yl)-1H-pyrazol-4-yl)pyrimidin-2-yl)amino)cyclohexyl)acetamide]
19 | < 500 | NC(=O)[C@@H]1CCC[C@H](Nc2ncc(F)c(-c3ccnc(C4(O)CCC4)c3)n2)C1 [Compound 244, (1R,3S)-3-((5-fluoro-4-(2-(1-hydroxycyclobutyl)pyridin-4-yl)pyrimidin-2-yl)amino)cyclohexane-1-carboxamide]
20 | < 500 | CC(=O)N1CCC[C@H](Nc2ncc(Cl)c(-c3cccc(-n4ccccc4=O)c3)n2)C1 [Compound 129, (S)-1-(3-(2-((1-acetylpiperidin-3-yl)amino)-5-chloropyrimidin-4-yl)phenyl)pyridin-2(1H)-one]
21 | < 500 | CNC(=O)[C@H]1C[C@@H](Nc2ncc(Cl)c(-c3cnn(-c4ccc(F)cc4)c3)n2)C1 [Compound 122, cis-(1s,3s)-3-((5-chloro-4-(1-(4-fluorophenyl)-1H-pyrazol-4-yl)pyrimidin-2-yl)amino)-N-methylcyclobutane-1-carboxamide]
22 | < 500 | CC(=O)N1CCC(Nc2ncc(Cl)c(-c3cnn(-c4cc[nH]c(=O)c4)c3)n2)CC1 [Compound 120, 4-(4-(2-((1-acetylpiperidin-4-yl)amino)-5-chloropyrimidin-4-yl)-1H-pyrazol-1-yl)pyridin-2(1H)-one]
23 | < 500 | CC(=O)N[C@@H]1CCC[C@@H](Nc2ncc(Cl)c(-c3cccc(-c4ccccc4)c3)n2)C1 (relative stereo) [Compound 34, trans-N-(3-((4-([1,1′-biphenyl]-3-yl)-5-chloropyrimidin-2-yl)amino)cyclohexyl)acetamide]
24 | 1000 to 5000 | CC(=O)N1CCC[C@H](Nc2ncc(Cl)c(-c3cccc(-c4ccc(F)cc4)n3)n2)C1 [Compound 194, (S)-1-(3-((5-chloro-4-(6-(4-fluorophenyl)pyridin-2-yl)pyrimidin-2-yl)amino)piperidin-1-yl)ethan-1-one]
